Source: US11992500B2, “Use of methylation inhibitors for the treatment of autoimmune diseases” (Rush University Medical Center, priority 2018, dated 2024)
Entries after “also recorded” stand apart in the source; their conditions may differ.

Assays:
[1] = test system: B cells of mice with PGIA; test: Molecular, cellular and histological analyses of AzaC-treated PGIA mice; format: in vivo, BALB/c mice
A20 cells [2] = test: Western blot of subcellular fractions of AzaC treated A20 cells; format: cell-based, mouse
Method: Western blot analyses: AzaC treated A20 cells (10 μM AzaC for 72 hours) washed with PBS, nuclear and cytoplasmic extracts were prepared from 8×10^6 cells using Nuclei EZ Prep kit (Sigma-Aldrich) according to the manufacturer's protocol. Protein extracts were separated on a 4-10% SDS-polyacrylamide gel (Bio-Rad Laboratories) and blotted onto Immuno-Blot membrane (Bio-Rad Laboratories). Western blots were serially probed with anti-AhR, anti-Lamin-B1 and glyceraldehyde-3-phosphate dehydrogenase (GAPDH) (Santa Cruz Biotechnologies) antibodies. ECL Western Blotting Substrate (ThermoScientific) was used for detection.

A20 cells [3] = test: Gene expression (qRT-PCR) in A20 cells cultured with epigenetic enzyme inhibitors; format: cell-based, mouse
Method: Cell cultures: A20 mouse B cell line were purchased from American Type Culture Collection (ATCC) and were maintained at 37° C. in a 5% CO2-humidified atmosphere on Dulbecco's modified Eagle's medium (DMEM) containing 10% fetal bovine serum (FBS) and […] each of penicillin and streptomycin. Human B cell line GM12878 were purchased from ATCC and cultured in RPMI 1640 media and maintained at 37° C. in a 5% CO2-humidified incubator as described above.
Azacitidine (AzaC) treatment of A20 cells: […] were seeded into 6-well plates containing 3 ml cell culture medium. Before AzaC treatment, cells were incubated for 16-18 hours at 37° C. in 5% CO2. Cells were treated with AzaC to a final concentration of 5, 10 and […], control cells were treated with 0.15% DMSO. Cells were incubated for 48, 72 and 96 hours under standard cell culture conditions. After 48 and 72 hours AzaC was replenished to keep the desired AzaC concentration. Harvested cells were washed with phosphate buffered saline (PBS) and viability and cell numbers were assessed on Vi-cell XR cell counter (Beckmann Counter).
(§1) RNA isolation, cDNA synthesis, and quantitative reverse transcription-polymerase chain reaction (qRT-PCR): Total RNA from cell culture was isolated using QIAmp RNA Blood Kit (Qiagen) or Direct-Zol™ RNA miniprep Kit (Zymo Research). Each RNA sample was digested with 4U of TurboDNase™ (Ambion) and purified with RNA clean and concentrator-5 (Zymo Research) and samples quantified using NanoDrop 1000 spectrophotometer. Primary mouse cells were collected from the spleens, on day 9 after the third PG injection. B cells were purified using antibody-coated magnetic beads (StemCell Technologies). RNA was isolated from purified mouse lymphocytes using a TRI reagent (Sigma-Aldrich) immediately after separation.
Human peripheral blood mononuclear cells (PBMCs) were separated on a Ficoll gradient from blood samples obtained from consenting, healthy individuals and from RA patients naive to treatment with disease-modifying antirheumatic drugs (DMARDs). The isolated mononuclear cells were stored in RNAlater (Life Technologies) until RNA preparation. Complementary DNA was reverse transcribed from 1 μg total RNA with iScript™ Reverse Transcription Supermix (Bio-Rad Laboratories). Quantitative RT-PCR (CFX Connect™, Bio-Rad Laboratories) was performed in triplicate using SsoAdvanced™ Universal SYBR Green Supermix (Bio-Rad Laboratories) in 10 μl. Quantitative RT-PCR was performed using CFX machine (Bio-Rad). Primers were designed using PrimerQuest software and were manufactured by Integrated DNA Technologies. The qRT-PCR primer sequences are available upon request from the corresponding author. The specificity of the qRT-PCR product was monitored by a post-PCR melting curve analysis. Samples were tested in duplicate, and the CFX manager software was used to calculate the normalized fold expression changes based on the ΔΔCt method. Measured Ct values were normalized to β-actin internal control values.

[4] = cancer patients, effective dose; cited from earlier work
A20 cells [5] = test: Gene expression (qRT-PCR) in A20 cells cultured with epigenetic enzyme inhibitors; format: cell-based, mouse; conditions: for AhR gene expression / Arnt gene expression: AzaC 2, 5, 10 μM, SAHA 0.1, 0.5, 1.0 μM, GSK126 5, 10, 15 μM, FIG. 6
[6] = test system: ex vivo-cultured arthritic B cells; test: Ahr expression (RT-qPCR) in ex vivo-cultured arthritic B cells; format: cell-based, mouse; conditions: 20 μM AzaC, FIG. 1(J)
Excerpt: Primary mouse cells were collected from the spleens, on day 9 after the third PG injection. B cells were purified using antibody-coated magnetic beads (StemCell Technologies). RNA was isolated from purified mouse lymphocytes using a TRI reagent (Sigma-Aldrich) immediately after separation.

[7] = test system: proteoglycan-induced arthritis (PGIA); test: Therapeutic AzaC treatment of established PGIA; format: in vivo, BALB/c mice; conditions: AzaC i.p. every other day after first symptoms (score ≥2), 2 mg/kg
Method: (§2) Mice: Retired breeder female BALB/c mice were purchased from the National Cancer Institute (NCI) and were used for the generation of cartilage proteoglycan-induced arthritis (PGIA). Briefly, the mice were immunized with PG purified from knee joint cartilage osteoarthritis patients who had undergone joint replacement surgery. PG was injected intraperitoneally (IP) 3 times (at 3-week intervals, 100 μg PG core protein/injection) with 2 mg of dimethyl-dioctadecyl-ammonium bromide adjuvant into BALB/c mice. Mice with acute arthritis were sacrificed 9 days after the 3rd PG immunization. Animal experiments were approved by the Institutional Animal Care and Use Committee at Rush University Medical Center, Chicago, Ill. […] Additional characteristics of RA are also present in other rodent models, but the above listed phenotypes and genotypes are present together only in PGIA.
In the therapeutic AzaC treatment group, arthritic mice were i.p. injected with either AzaC or vehicle on every other day following the first symptoms of arthritis, when the visual arthritis score was at least ≥2 per animal (FIG. 3(B)).

[8] = test system: B cells of mice with PGIA; test: Molecular, cellular and histological analyses of AzaC-treated PGIA mice; format: in vivo, BALB/c mice; remark: listed apart in the source
Excerpt: as §1
Genomic DNA (gDNA) purification, Global DNA methylation assessment and Methylated CpG island ecovery assay (MIRA)-assisted microarray (MIRA-chip) and data analysis: gDNA was isolated from affinity purified B cells using QIAamp DNA Mini Kit (Qiagen). Global DNA methylation analysis was performed using Imprint Methylated DNA Quantification kit (Sigma-Aldrich). Experiments were conducted according to manufacturer instructions MIRA enrichment of methylated gDNA fractions were performed by MethylCollector™ Ultra kit (Active Motif), captured fractions were labeled and hybridized to microarrays harboring all mouse promoters and CpG island outside of the promoter regions (NimbleGene). Data analysis was performed as described before.
In another embodiment, the effect of AzaC treatment on germinal center (GC) formation in animals was investigated. Germinal center formation was examined in control (DDA adjuvant-injected and arthritic non-treated) and arthritic AzaC-treated mice (FIG. 4(C-D)). […] Joint-draining lymph nodes (FIG. 4(C)) and spleens (FIG. 4(D)). DDA-injected (adjuvant control), vehicle-treated mice with PGIA and AzaC-treated mice with PGIA. Green-GL7 (activated B and T cell marker), Red-CD45/B220 (B cells), Blue-CD4 & CD8a (T cells). Arrows point to GCs. GC %-percentage of GC-containing follicles observed in the investigated lymph nodes and spleens (n=36 follicles from LNs, n=106 follicles from spleens). Green sidebars-percentage of GC carrying follicles. Red sidebars are follicles without GC.

[9] = test system: proteoglycan-induced arthritis (PGIA); test: Prophylactic AzaC treatment of mice with PGIA; format: in vivo, BALB/c mice; conditions: prophylactic AzaC i.p. every other day from 10 days before expected onset
Method: as §2
First, the prophylactic effect of AzaC on arthritis development in mice with PGIA was investigated. AzaC treatment was started 10 days before the expected PGIA onset (on day 40 of the immunization) and was administered intraperitoneally (i.p.) every other day. The control group received saline solution (FIG. 3(A)). […] Female BALB/c mice were immunized 3 times with PG. Limbs were inspected regularly after the third PG injection for signs of arthritis, and a visual arthritis score was assigned to all paws. […]

Ezh2 = Ezh2 (Homo sapiens, UniProt Q15910); conditions: cited from earlier work
[10] = AzaC 48 hours, plasmid not expressing Ahr-specific shRNA
[11] = B cells of AzaC-treated PGIA mice, RT-qPCR

Chain of Ezh2 (Q15910 whole entry, species assumed): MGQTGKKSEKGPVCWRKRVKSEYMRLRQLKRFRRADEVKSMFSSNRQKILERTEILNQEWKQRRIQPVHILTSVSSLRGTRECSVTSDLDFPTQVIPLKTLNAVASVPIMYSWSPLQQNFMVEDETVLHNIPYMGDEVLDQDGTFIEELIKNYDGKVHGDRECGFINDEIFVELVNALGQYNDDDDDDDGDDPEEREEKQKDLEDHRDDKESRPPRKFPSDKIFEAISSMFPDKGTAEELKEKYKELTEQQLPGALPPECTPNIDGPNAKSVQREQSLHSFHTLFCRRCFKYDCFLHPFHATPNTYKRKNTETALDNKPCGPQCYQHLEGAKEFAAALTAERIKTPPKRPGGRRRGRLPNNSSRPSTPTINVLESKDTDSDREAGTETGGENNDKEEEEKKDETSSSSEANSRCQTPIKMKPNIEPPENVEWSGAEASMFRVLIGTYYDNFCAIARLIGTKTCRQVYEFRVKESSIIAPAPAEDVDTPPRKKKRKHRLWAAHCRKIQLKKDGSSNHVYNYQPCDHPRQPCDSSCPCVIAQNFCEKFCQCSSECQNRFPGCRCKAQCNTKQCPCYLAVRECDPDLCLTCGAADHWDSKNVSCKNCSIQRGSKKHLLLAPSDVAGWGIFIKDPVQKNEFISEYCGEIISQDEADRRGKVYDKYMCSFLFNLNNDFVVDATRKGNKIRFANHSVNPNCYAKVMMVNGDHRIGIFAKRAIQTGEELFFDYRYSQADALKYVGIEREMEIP
Chain of Ezh2 (O75530 whole entry partner, species assumed): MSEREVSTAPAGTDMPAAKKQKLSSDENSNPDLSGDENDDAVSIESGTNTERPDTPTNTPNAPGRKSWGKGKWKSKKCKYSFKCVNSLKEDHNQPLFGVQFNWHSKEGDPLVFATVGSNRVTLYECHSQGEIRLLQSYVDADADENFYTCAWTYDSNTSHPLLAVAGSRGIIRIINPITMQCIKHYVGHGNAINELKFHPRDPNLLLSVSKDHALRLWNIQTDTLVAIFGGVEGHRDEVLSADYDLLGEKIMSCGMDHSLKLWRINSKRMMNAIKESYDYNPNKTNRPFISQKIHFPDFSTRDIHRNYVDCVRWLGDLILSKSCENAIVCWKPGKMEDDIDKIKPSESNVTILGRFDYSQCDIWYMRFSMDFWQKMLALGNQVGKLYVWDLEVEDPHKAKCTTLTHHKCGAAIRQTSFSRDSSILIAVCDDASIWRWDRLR
Chain of Ezh2 (Q15022 whole entry partner, species assumed): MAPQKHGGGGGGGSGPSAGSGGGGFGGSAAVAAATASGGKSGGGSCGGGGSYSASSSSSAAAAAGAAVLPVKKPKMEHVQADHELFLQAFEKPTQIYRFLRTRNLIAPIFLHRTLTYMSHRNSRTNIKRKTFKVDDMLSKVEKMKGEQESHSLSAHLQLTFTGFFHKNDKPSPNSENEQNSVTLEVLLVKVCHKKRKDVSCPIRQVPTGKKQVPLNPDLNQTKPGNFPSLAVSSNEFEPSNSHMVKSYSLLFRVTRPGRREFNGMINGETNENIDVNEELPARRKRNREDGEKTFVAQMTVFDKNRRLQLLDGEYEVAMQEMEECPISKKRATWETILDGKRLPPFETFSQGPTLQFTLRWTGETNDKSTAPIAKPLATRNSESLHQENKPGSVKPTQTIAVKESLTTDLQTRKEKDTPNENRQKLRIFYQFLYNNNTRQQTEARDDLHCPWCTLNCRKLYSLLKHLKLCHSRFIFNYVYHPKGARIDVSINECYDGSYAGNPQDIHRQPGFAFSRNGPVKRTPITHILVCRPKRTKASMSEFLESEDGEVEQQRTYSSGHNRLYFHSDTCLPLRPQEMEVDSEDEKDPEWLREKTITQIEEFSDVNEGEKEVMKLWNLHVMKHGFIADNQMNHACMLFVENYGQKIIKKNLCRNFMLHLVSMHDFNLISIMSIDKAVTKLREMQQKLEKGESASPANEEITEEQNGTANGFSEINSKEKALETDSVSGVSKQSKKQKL
Chain of Ezh2 (Q09028 whole entry partner, species assumed): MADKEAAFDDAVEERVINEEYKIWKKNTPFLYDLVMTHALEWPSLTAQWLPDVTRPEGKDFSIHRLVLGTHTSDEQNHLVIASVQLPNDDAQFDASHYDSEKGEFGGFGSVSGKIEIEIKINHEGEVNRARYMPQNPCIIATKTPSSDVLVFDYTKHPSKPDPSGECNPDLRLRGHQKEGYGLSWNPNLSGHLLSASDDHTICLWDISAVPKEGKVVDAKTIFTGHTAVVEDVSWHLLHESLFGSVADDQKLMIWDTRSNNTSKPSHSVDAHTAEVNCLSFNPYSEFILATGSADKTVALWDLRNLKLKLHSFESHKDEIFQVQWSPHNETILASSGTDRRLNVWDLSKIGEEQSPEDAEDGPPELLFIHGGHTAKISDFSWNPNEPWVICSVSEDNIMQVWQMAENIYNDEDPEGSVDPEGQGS

Nc1ncn([C@@H]2O[C@H](CO)[C@@H](O)[C@H]2O)c(=O)n1 [AzaC, 4-Amino-1-(β-D-ribofuranosyl)-1,3,5-triazin-2(1H)-one]
Histology of ankle joints ([1]; AzaC-treated arthritic versus naive (non-immunized) ankles): no detectable histological differences
Immature B cell number ([1]; bone marrow, flow cytometry): significant decrease
Plasma cell number ([1]; bone marrow, flow cytometry): reduced, but statistically not significant alteration
Autoantibody titer (human PG-specific IgG1, ELISA) ([1]; sera of AzaC-treated PGIA mice): diminish autoantibody production; also recorded: significantly reduced
Splenic marginal zone (MZ) and follicular B cell populations ([1]; spleen, flow cytometry): no significant change
Translocation of AhR into nuclei (A20 cells [2]; 10 μM AzaC for 72 hours, Western blot): translocation of the translated product into A20 nuclei; also recorded: AhR translocated into the nucleus without adding specific agonist
Aicda protein level in cytoplasmic fraction (A20 cells [2]; Western blot, FIG. 2(E)): downregulation could be also observed at protein level; also recorded: reduces Aicda level
AhR protein level (A20 cells [2]; Western blotting): elevated AhR protein level was not detected
Expression of tentative AhR target genes (cytokine genes) (A20 cells [3]; 10 μM AzaC for 72 hours, FIG. 5(C)): could significantly alter the expression of three tentative AhR target genes
Aicda expression with Ahr-specific shRNA (A20 cells [3]; AzaC 48 hours plus Ahr-specific shRNA-expressing construct): reversed
Ahr expression, control plasmid (A20 cells [3]; [10]): significantly increased
Aicda expression, control plasmid (A20 cells [3]; [10]): downregulated
AhR gene expression (A20 cells [3]; AzaC in various concentrations (5, 10, 15 μM), followed for three days, FIG. 1(L)): could revive AhR expression after two days
Cyp1a1 gene expression (A20 cells [3]; AzaC treatment): elevated expression of Cyp1a1 gene
Arnt expression (A20 cells [3]; AzaC treatment, FIG. 1(M), FIG. 2(A)): increased; also recorded: reactivated; also recorded: just prolonged and high concentration AzaC treatment could have released it from the silent state
RelB expression (A20 cells [3]; AzaC treatment, FIG. 2(B)): increased
Adverse drug events / side effects [4]: triggers cytotoxicity and induces nausea, vomiting, fevers, diarrhea, rigors and many other side effects; also recorded: induces severe adverse drug events (ADEs)
Ahr expression, time course (A20 cells [5]; 10 μM AzaC, 24, 48 and 72 hours): could be reactivated; also recorded: increased Ahr expression; also recorded: significantly increased; also recorded: releases Ahr from DNA methylation-mediated silencing
AhR gene expression (A20 cells [5]; 72 hours): significant reactivation
Arnt gene expression (A20 cells [5]; 72 hours): could not trigger significant upregulation
Aicda expression (A20 cells [5]; extended exposure to AzaC (24-72 hours)): significantly downregulated; also recorded: reduces Aicda expression; also recorded: downregulated expression
Ahr expression [6]: restored
Swelling and progression of established PGIA [7]: significantly reduce swelling and halt the progression of PGIA; also recorded: very effective; also recorded: no detectable signs of PGIA after the second AzaC injection; also recorded: halted the progression of PGIA; also recorded: clinical symptoms of RA were abolished
Ahr expression in vivo [8, 11]: restore Ahr expression in vivo; also recorded: increased Ahr expression; also recorded: sufficient for releasing Ahr expression from DNA methylation-mediated blockage; also recorded: reactivated
Aicda expression in vivo [8, 11]: markedly inhibited; also recorded: downregulation of Aicda expression
DNA methylation level of Ahr promoter (MIRA) ([8]; B cells of AzaC-treated arthritic mice): erased arthritis-associated DNA hypermethylation; also recorded: reduced
Germinal center (GC) formation ([8]; spleen and draining lymph nodes): seriously impaired GC development and reduced GC number; also recorded: diminished; also recorded: impaired GC formation
Post-recombinant IgG1 transcript level (class switch recombination) ([8]; splenic B cells of AzaC-treated PGIA mice, qRT-PCR): significantly decreased
Development of PGIA (signs of disease) [9]: No sign of the disease was observed; also recorded: prevents the development of arthritis; also recorded: prevents PGIA development

CC[C@H](C)n1cc(C)c2c(C(=O)NCc3c(C)cc(C)[nH]c3=O)cc(-c3ccc(N4CCNCC4)nc3)cc21 [GSK126, N-[(1,2-dihydro-4,6-dimethyl-2-oxo-3-pyridinyl)methyl]-3-methyl-1-[(1S)-1-methylpropyl]-6-[6-(1-piperazinyl)-3-pyridinyl]-1H-indole-4-carboxamide]
AhR gene expression (A20 cells [5]; 72 hours): promoted the expression
Arnt gene expression (A20 cells [5]; 72 hours): statistically significant upregulation

CCCc1cc(C)[nH]c(=O)c1CNC(=O)c1cc(-c2ccnc(N3CCN(C)CC3)c2)cc2c1cnn2C(C)C [GSK343, N-[(1,2-dihydro-6-methyl-2-oxo-4-propyl-3-pyridinyl)methyl]-1-(1-methylethyl)-6-[2-(4-methyl-1-piperazinyl)-4-pyridinyl]-1H-indazole-4-carboxamide]
Ki (affinity to Ezh2) (Ezh2): low nM range

O=C(CCCCCCC(=O)Nc1ccccc1)NO [SAHA, suberanilohydroxamic acid]
Cytotoxicity (A20 cells [5]; 72 hours): without high cytotoxicity
AhR gene expression (A20 cells [5]; 72 hours): could increase the gene expression
Arnt gene expression (A20 cells [5]; 72 hours): could increase the gene expression
